Results: PubChem BioAssay (NCI)
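Test compounds were applied to cells in 96-well plates for 48 hours at 5 doses. At the TGI there is no net growth.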

Experiments:
Test in all cases: NCI tumour cell line growth inhibition, 48 h
DMS 273 small cell lung = tested on: DMS 273 small cell lung
DLD-1 colon = tested on: DLD-1 colon
HOP-18 NSCLC = tested on: HOP-18 NSCLC
LXFL 529 NSCLC = tested on: LXFL 529 NSCLC
KM20L2 colon = tested on: KM20L2 colon
SNB-78 CNS = tested on: SNB-78 CNS
DMS 114 small cell lung = tested on: DMS 114 small cell lung
SN12K1 renal = tested on: SN12K1 renal
P388/ADR leukemia = tested on: P388/ADR leukemia
XF 498 CNS = tested on: XF 498 CNS
P388 leukemia = tested on: P388 leukemia
RXF-631 renal = tested on: RXF-631 renal

Compound	TGI (DMS 273 small cell lung)	TGI (DLD-1 colon)	TGI (HOP-18 NSCLC)	TGI (LXFL 529 NSCLC)	TGI (KM20L2 colon)	TGI (SNB-78 CNS)	TGI (DMS 114 small cell lung)	TGI (SN12K1 renal)	TGI (P388/ADR leukemia)	TGI (XF 498 CNS)	TGI (P388 leukemia)	TGI (RXF-631 renal)
CC1=NS(=O)(=O)c2ccccc2N1	> 100 µM	> 100 µM	> 100 µM	> 100 µM	> 100 µM	> 100 µM	> 100 µM	–	–	–	–	–
Cc1cn(C2CC(O)C(CO)O2)c(=O)[nH]c1=O (stereo not drawn)	> 5000 µM	> 5000 µM	> 5000 µM	–	> 5000 µM	> 5000 µM	> 4670 µM	4530 µM	2650 µM	366 µM	1970 µM	–
CSc1nsc(-c2ccccc2)[s+]1	> 100 µM	> 100 µM	> 100 µM	–	> 100 µM	> 100 µM	–	–	–	–	–	> 100 µM
CCCSCC(P(=O)(O)O)P(=O)(O)O	> 100 µM	> 100 µM	> 100 µM	–	> 100 µM	> 100 µM	> 100 µM	> 100 µM	> 100 µM	> 100 µM	> 100 µM	–
